Values after ≈ are worked out from the molar mass of the structure shown. “Also recorded” adds a separate entry of the source.
Legend:
ecdysone receptor [1] = conditions: cited from earlier work
Aqueous solubility = format: physicochemical; conditions: aqueous KCl/HEPES buffer, 100 mM KCl, 10 mM K · HEPES, pH 7.4
NIH3T3-ER fibroblasts = experiment: Toxicity in cell culture (CyQuant DNA quantification); format: cell-based; conditions: 48 hours
Protocol: Cellular toxicity of NSE-1 was tested in cell culture. NIH3T3-ER fibroblasts (Stratagene, La Jolla, Calif.) were seeded into 96-well plates, allowed to attach for 24 hours in DMEM supplemented with 10% v/v fetal bovine serium (FBS). The medium was then replaced with DMEM-10 FBS containing ecdysoid drugs or solvent vehicle, and the cells were allowed to grow for 48 hours, at the end of which the cells were lysed and the amount of DNA in each well quantified through the CyQuant assay (Molecular Probes, Inc. Eugene, Oreg.).
Cellular toxicity of NSE-1 was tested in cell culture. NIH3T3-ER fibroblasts (Stratagene) were seeded into 96-well plates, allowed to attach for 24 hours in DMEM supplemented with 10% v/v fetal bovine serum (FBS). The medium was then replaced with DMEM-10% FBS containing ecdysoid drugs or solvent vehicle. Ethanol and DMSO were vehicle controls for ponasterone A and NSE-1, respectively. The cells were allowed to grow for 48 hours, at the end of which the cells were permeabilized and the amount of DNA in each well quantified with the CyQuant assay (Molecular Probes). […] The data are summarized in FIG. 1 (each measurement is the mean of 6 wells).

mice = experiment: Toxicity in animals (intraperitoneal injections); format: in vivo; conditions: 8 mice, 32.5 mg/ml suspension, six 200-μl aliquots at 12-hour intervals
Protocol: NSE-1 was suspended (32.5 mg/ml) in carrier vehicle consisting of 15% w/v Pluronic F127 surfactant (BASF Corp., Wyandotte, Mich.) and 3% v/v dimethylsulfoxide in phosphate buffered saline (PBS, pH 7). […] These observations give at least preliminary data showing that NSE-1 is not acutely toxic to mammals.
NSE-1 was suspended (32.5 mg/ml) in vehicle consisting of 15% w/v Pluronic F127 surfactant (BASF Corp., Wyandotte, Mich.) and 3% v/v dimethylsulfoxide in phosphate buffered saline (PBS, pH 7).

[2] = test system: EGFP reporter gene under ecdysone promoter control in NIH3T3-ER cells; experiment: Induction of reporter gene expression in transiently-transfected cells; format: cell-based; conditions: 30 μM, 48 hours, single-cell microfluorimetry, NIH3T3-ER cells with pEGSH-EGFP
Protocol: NIH3T3-ER cells were transiently transfected with a plasmid pEGSH-GFP carrying the reporter eGFP gene under ecdysone promoter control. The transfected cells were treated with 10 μM ponasterone A, or 30 μM NSE-1, or plain medium for 48 hours and then screened for induction of eGFP expression by single-cell microfluorimetry.
NIH3T3-ER cells, in which expression of a modified ecdysone receptor and the retinoid X co-receptor are driven by the CMV promoter, were transiently transfected with the pEGSH-EGFP plasmid using FuGene 6 transfection reagent. The transfected cells were treated with 30 μM NSE-1 or vehicle for 48 hours and then screened for induction of EGFP expression by single-cell microfluorimetry.

[3] = test system: EGFP-Kir2.1 fusion protein under ecdysone promoter control (VgEcR/RXR); experiment: Induction of reporter genes in primary rat anterior pituitary cells after adenovirus-mediated gene transfer; format: cell-based; conditions: 24 hours, single-cell microfluorimetry
Text: Anterior pituitary glands were removed from female Sprague-Dawley rats, enzymatically dissociated, and plated onto No. 1 polylysine-coated glass coverslips for culturing as previously described (Ho et al. 1995). The cells were doubly infected with one adenovirus (AdVgRXR) that allows constitutive expression of a modified ecdysone receptor (VgEcR) and the retinoid X receptor (RXR) and a second adenovirus (AdGFIRK) that places under ecdysone promoter control the expression of a fusion protein between EGFP and a potassium channel of the inward rectifier family (Kir2.1). For infection, the adenoviruses were applied at 200 pfu's per cell in infection medium for 3-5 hours. The cells were then allowed to recover for 24 hours before being treated with ecdysoids (ponasterone A, NSE-1) or solvent vehicle for 24 hours.
After induction, cells were then randomly chosen through a phase-contrast view and EGFP expression in each chosen cell was monitored by single-cell microfluorimetry. Because the EGFP-Kir2.1 fusion protein should be targeted to the plasma membrane, we expect its presence in the plasma membrane as well as in the Golgi-as the images in FIG. 5 indeed illustrate. A quantitative summary of the microfluorimetric data is shown in FIG. 6 (note break in y-axis scale; N shown at the base of each bar). […]

ecdysone receptor [4] = experiment: Activation of the ecdysone-regulable gene expression system; format: cell-based, D. melanogaster
Text: The ecydysone-regulable gene expression system relies on a recombinant ecdysone receptor (VgEcR), which is an N-terminal truncation of the natural ecdysone receptor from D. melanogaster fused to the activation domain of VP16 from HSV; VgEcR also bears 3 point mutations in the P box of the DNA-binding domain of EcR to resemble that of the glucocorticoid receptor (GR) to allow recognition of a synthetic ecdysone-response element (E/GRE), which consists of inverted half-site recognition elements for the retinoid X receptor (RXR) and GR DNA-binding domains. The hybrid E/GRE sequence is designed to evade recognition by any endogenous nuclear receptors. With RXR, the vertebrate homologue of Drosophila ultraspiracle (Yao et al. 1992), VgEcR forms a heterodimer that binds to E/GRE and initiates transcription. The ecdysone-inducible expression system has very low basal expression (No et al. 1996), because the presence of ecdysoid hormones is obligatory for receptor heterodimerization and DNA binding (Yao et al. 1993). Finally, ecdysoid hormones have no known corresponding bioactivity in vertebrates, presumably because there are no processes homologous to molting.
That these ecdysone analogues are steroids presents the same chemical obstacle to caging as did mifepristone. Fortunately, however, members of the bisacylhydrazine family are potent activators of the ecdysone receptor, and they are accessible by facile organic synthetic routes. As shown in Preliminary Studies, we have successfully synthesized a non-steroidal ecdysoid (NSE) from this class of compounds. […] Furthermore, because non-steroidal mimics of ecdysoid molting hormone have been of great interest to the agrichemical business, the acute toxicity, mutagenicity, carcinogenicity, and teratogenicity of the bisacylhydrazine family of NSEs have been extensively tested since the compounds were serendipitously discovered as ecdysone mimetics in 1983 (see Dhadialla et al. 1998 and references therein).

Which “activation of the ecdysone receptor” value (ecdysone receptor [1]) does the source give for `CC(C)(O)CC[C@@H](O)[C@](C)(O)[C@H]1CC[C@@]2(O)C3=CC(=O)[C@@H]4C[C@@H](O)[C@@H](O)C[C@]4(C)[C@H]3CC[C@]12C` [20-hydroxy-ecdysone] here?
Its value is “moderately activated”.

Which results are given for `CCc1c(OC)cccc1C(=O)NN(C(=O)c1cc(C)cc(C)c1)C(C)(C)C` [NSE-1, 1-(3,5-dimethylbenzoyl)-1-tert-butyl-2-(2-ethyl-3-methoxybenzoyl)hydrazine]?
solubility (Aqueous solubility): 47 µM (≈ 18 µg/mL); growth capacity of the cells (amount of DNA, CyQuant) (NIH3T3-ER fibroblasts; 10 μM): Neither Ponasterone A at 10 μM, nor NSE-1 at 10, 30 or 100 μM significantly affected the growth capacity of the cells; growth capacity of the cells (amount of DNA, CyQuant) (NIH3T3-ER fibroblasts; 30 μM): Neither Ponasterone A at 10 μM, nor NSE-1 at 10, 30 or 100 μM significantly affected the growth capacity of the cells; growth capacity of the cells (amount of DNA, CyQuant) (NIH3T3-ER fibroblasts; 100 μM): Neither Ponasterone A at 10 μM, nor NSE-1 at 10, 30 or 100 μM significantly affected the growth capacity of the cells; signs of intoxication (mice): did not produce any signs of intoxication; induction of EGFP expression [2]: efficacy of NSE-1 in inducing transgenes in cultured cell lines; also recorded: can induce EGFP reporter expression; induction of expression of the EGFP-Kir2.1 fusion protein [3]: can strongly induce expression; activity in inducing expression of reporter genes under ecdysone promoter control, relative to ponasterone A (ecdysone receptor [4]): as active as ponasterone A; concentrations required for activating the ecdysone system (ecdysone receptor [4]): in the μM range

For `CC(C)CC[C@@H](O)[C@](C)(O)[C@H]1CC[C@@]2(O)C3=CC(=O)[C@@H]4C[C@@H](O)[C@@H](O)C[C@]4(C)[C@H]3CC[C@]12C` [Ponasterone A, reference compound], which “growth capacity of the cells (amount of DNA, CyQuant)” value (NIH3T3-ER fibroblasts; 10 μM) is on record?
Its value is “Neither Ponasterone A at 10 μM, nor NSE-1 at 10, 30 or 100 μM significantly affected the growth capacity of the cells”.

What about the “induction of expression of the EGFP-Kir2.1 fusion protein” value [3] of the same molecule?
Its value is “can strongly induce expression”.

And the “concentrations required for activating the ecdysone system” value (ecdysone receptor [4])?
The value was “in the μM range”.

What about the “activation of the ecdysone receptor” value (ecdysone receptor [1]) of the same molecule?
The value was “much more robustly activated”.

For `CC(C)CC[C@@H](O)[C@](C)(O)[C@H]1CC[C@@]2(O)C3=CC(=O)[C@]4(O)C[C@@H](O)[C@@H](O)C[C@]4(C)[C@H]3[C@H](O)C[C@]12C` [muristerone A], which “activation of the ecdysone receptor” value (ecdysone receptor [1]) is on record?
The value was “much more robustly activated”.

Reference: US6803479B2, “Reagents and method for spatio-temporal control of gene expression by illumination” (University of Maryland Biotechnology Institute, priority 2001, dated 2004)
